From patent publication US11999728B2, “Estrogen receptor modulators” (Recurium IP Holdings, LLC, priority 2020, dated 2024)

tested on: MCF7; experiment: Breast Cancer Cell Proliferation Assay (MCF-7), Cell Titer-Glo; type: cell-based; conditions: Homo sapiens, MCF7, 120 h, MCF7 cells, 5 days of compound exposure
Experimental: Breast Cancer Cell Proliferation Assay (MCF-7)
MCF7 was expanded and maintained in the medium (Phenol red free DMEM/F12 (Hyclone SH30272.01) NEAA (Gibco11140-050) Na-pyruvate (Gibco 11360-070) and Re-stripped Charcoal stripped FBS (Gemini 100-119)). The cells were adjusted to a concentration of 3,000 cells per mL in the above media, and the cells were incubated (37° C., 5% CO2). The following day a 10-point, serial dilution of compounds was added to the cells at a final concentration ranging from 10-0.000005 μM for test compounds (17β-estradiol was used as a control). Additional cells were plated in 30 wells to serve as the day 1 (pretreatment) comparison. After 5 days of compound exposure, Cell Titer-Glo reagent was added to the cells and the relative luminescence units (RLUs) of each well was determined. Cell Titer-Glo was also added to 32 μL of medium without cells to obtain a background value. The plates were allowed to incubate at room temperature for 10 minutes to stabilize luminescent signal and the luminescence signal was recorded with EnSpire. The relative increase in cell number of each sample is determined as follows: (RLU sample-RLU background/RLU estrogen only treated cells-RLU background)×100=% inhibition.

| SMILES | IC50 [nM] |
| --- | --- |
| C[C@@H]1Cc2c([nH]c3ccccc23)[C@@H](c2ccc(O[C@@H]3CCN(CCCF)C3)cn2)N1C12CC(C1)C2 (single isomer, unassigned) [Compound 11] | ≥ 250 |
| C[C@@H]1Cc2c([nH]c3ccccc23)[C@@H](c2ccc(O[C@H]3CCN(CCCF)C3)cn2)N1C12CC(C1)C2 (single isomer, unassigned) [Compound 12] | 25 to 250 |
| C[C@H]1Cc2c([nH]c3ccccc23)[C@H](c2c(F)cc(NC3CN(CCCF)C3)cc2F)N1C12CC(CO)(C1)C2 (single isomer, unassigned) [Compound 17] | ≥ 250 |
| C[C@H]1Cc2c([nH]c3ccccc23)[C@H](c2c(F)cc(O[C@H]3CCN(CCCF)C3)cc2F)N1C12CC(C(N)=O)(C1)C2 (single isomer, unassigned) [Compound 32] | ≥ 250 |
| C[C@H]1Cc2c([nH]c3ccccc23)[C@H](c2c(F)cc(O[C@@H]3CCN(CCCF)C3)cc2F)N1C12CC(C(N)=O)(C1)C2 (single isomer, unassigned) [Compound 33] | ≥ 250 |
| C[C@@H]1Cc2c([nH]c3ccccc23)[C@@H](c2c(F)cc(O[C@@H]3CCN(CCCF)C3)cc2F)N1C12CC(C(N)=O)(C1)C2 (single isomer, unassigned) [Compound 34] | 25 to 250 |
| C[C@@H]1Cc2c([nH]c3ccccc23)[C@@H](c2c(F)cc(O[C@H]3CCN(CCCF)C3)cc2F)N1C12CC(C#N)(C1)C2 (single isomer, unassigned) [Compound 36] | ≥ 250 |
| C[C@H]1Cc2c([nH]c3ccccc23)[C@H](c2ccc(OC3CN(CCCF)C3)cc2)N1C12CC(CO)(C1)C2 (single isomer, unassigned) [Compound 51] | 25 to 250 |
| CCCN1CC(Oc2ccc([C@H]3c4[nH]c5ccccc5c4C[C@H](C)N3C34CC(CO)(C3)C4)cc2)C1 (single isomer, unassigned) [Compound 53] | 25 to 250 |
| C[C@@H]1Cc2c([nH]c3ccccc23)[C@@H](c2ccc(NC3CN(CCCF)C3)cc2)N1C12CC(CF)(C1)C2 (single isomer, unassigned) [Compound 62] | ≥ 250 |

The next lines start with the values.

| IC50 [nM] | SMILES |
| --- | --- |
| 25 to 250 | C[C@@H]1Cc2c([nH]c3ccccc23)[C@@H](c2ccc(O[C@@H]3CCN(CCCF)C3)cc2)N1C12CC(C1)C2 (single isomer, unassigned) [Compound 7] |
| ≤ 25 | C[C@@H]1Cc2c([nH]c3ccccc23)[C@@H](c2ccc(O[C@H]3CCN(CCCF)C3)cc2)N1C12CC(C1)C2 (single isomer, unassigned) [Compound 8] |
| 25 to 250 | C[C@@H]1Cc2c([nH]c3ccccc23)[C@@H](c2ccc(O[C@@H]3CCN(CCCF)C3)nc2)N1C12CC(C1)C2 (single isomer, unassigned) [Compound 9] |
| ≤ 25 | C[C@@H]1Cc2c([nH]c3ccccc23)[C@@H](c2c(F)cc(NC3CN(CCCF)C3)cc2F)N1C12CC(CO)(C1)C2 (single isomer, unassigned) [Compound 18] |
| ≤ 25 | C[C@@H]1Cc2c([nH]c3ccccc23)[C@@H](c2c(F)cc(O[C@H]3CCN(CCCF)C3)cc2F)N1C12CC(C(N)=O)(C1)C2 (single isomer, unassigned) [Compound 35] |
| ≤ 25 | C[C@@H]1Cc2c([nH]c3ccccc23)[C@@H](c2c(F)cc(O[C@@H]3CCN(CCCF)C3)cc2F)N1C12CC(C#N)(C1)C2 (single isomer, unassigned) [Compound 37] |
| ≤ 25 | C[C@@H]1Cc2c([nH]c3ccccc23)[C@@H](c2ccc(OC3CN(CCCF)C3)cc2)N1C12CC(CO)(C1)C2 (single isomer, unassigned) [Compound 50] |
| ≤ 25 | CCCN1CC(Oc2ccc([C@@H]3c4[nH]c5ccccc5c4C[C@@H](C)N3C34CC(CO)(C3)C4)cc2)C1 (single isomer, unassigned) [Compound 52] |
| ≤ 25 | C[C@H]1Cc2c([nH]c3ccccc23)[C@H](c2ccc(NC3CN(CCCF)C3)cc2)N1C12CC(CF)(C1)C2 (single isomer, unassigned) [Compound 63] |
| ≤ 25 | C[C@H]1Cc2c([nH]c3ccccc23)[C@H](c2c(F)cc(N[C@H]3CCN(CCCF)C3)cc2F)N1C12CC(CO)(C1)C2 (single isomer, unassigned) [Compound 71] |
